Experimental data from patent US20260098039A1, “SOLID FORMS OF COMPOUND I OR SALTS THEREOF” (Jacobio Pharmaceuticals Co., Ltd., priority 2022, published 2026).
Values after ≈ are worked out from the molar mass of the structure shown. “Also recorded” adds a separate entry of the source.

Assays:
[1] = target: T1, PARP7 enzyme (Homo sapiens, UniProt Q7Z3E1); assay: PARP7 enzymatic HTRF assay; type: binding; conditions: 6 nM PARP7 enzyme solution, RBN011147 probe, 25° C. 3 hrs
T1 sequence (Q7Z3E1 1-657): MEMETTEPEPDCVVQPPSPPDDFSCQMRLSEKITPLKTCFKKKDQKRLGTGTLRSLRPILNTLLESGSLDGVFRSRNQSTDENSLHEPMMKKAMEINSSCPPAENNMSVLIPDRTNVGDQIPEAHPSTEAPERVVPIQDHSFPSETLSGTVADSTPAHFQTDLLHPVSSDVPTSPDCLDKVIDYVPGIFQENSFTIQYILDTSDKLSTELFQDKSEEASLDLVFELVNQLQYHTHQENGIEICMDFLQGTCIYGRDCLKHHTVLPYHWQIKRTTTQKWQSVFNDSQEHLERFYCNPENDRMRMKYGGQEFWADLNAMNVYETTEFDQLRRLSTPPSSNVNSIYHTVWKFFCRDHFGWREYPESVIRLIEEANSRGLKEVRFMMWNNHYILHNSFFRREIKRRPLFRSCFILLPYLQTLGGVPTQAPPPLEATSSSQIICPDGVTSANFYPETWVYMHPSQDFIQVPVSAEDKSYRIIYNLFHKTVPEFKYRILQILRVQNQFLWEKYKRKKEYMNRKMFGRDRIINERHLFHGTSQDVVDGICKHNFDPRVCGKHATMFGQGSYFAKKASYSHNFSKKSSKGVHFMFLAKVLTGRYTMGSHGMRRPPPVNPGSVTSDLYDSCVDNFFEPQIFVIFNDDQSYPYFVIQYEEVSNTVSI
Description: The PARP7 enzyme inhibitory activity of each compound was tested using HTRF (homogeneous time resolved fluorescence) assay, and the half inhibitory concentration IC50 thereof was obtained.
(1) Each compound to be tested was prepared using gradient dilution method with DMSO and water to obtain a solution with the concentration of 50 nM, 10 nM, 2 nM, 0.4 nM, and 0.08 nM. The concentration of DMSO in the solution of each compound to be tested was 2%. […]
(5) The fluorescence signal was read on SPARK plate reader (Tecan), the wavelength of the excitation spectrum of the SPARK plate reader was 320 nm, and the wavelength of the emission spectrum of the SPARK plate reader was 620 nm and 665 nm. The ratio of […] was calculated for the solution in each well. The ratio was calculated according to the following formula: Ratio=absorbance at 665 nm/absorbance at 620 nm×10^4.
(6) The activation of the compounds to be tested was calculated according to the following formula: Activation (%)=100× (ratiocompound−rationnegative)/(ratiopositive−rationegative). […]

[2] = Solid state stability of crystalline form 1; type: physicochemical; conditions: long-term, accelerated, high temperature and high humidity conditions, exposed, dark, 10 days
Description: The stability of crystalline Form 1 of Compound I was tested according to the following table 6.
The solid stability of crystalline form 1 of Compound I was exposure for 10 days in high humidity (25° C.±2° C., 90% RH±5% RH), high temperature (50° C.±5° C., <30% RH), long-term (25° C.±5° C., 60% RH±5%) and accelerated (40° C.±2° C., 75% RH±5%) conditions.

[3] = Equilibrium solubility of crystalline form 1; type: physicochemical
Description: The equilibrium solubility of crystalline form 1 of Compound I was tested according to the following table 7.

Row | Compound | IC50 [1] | Polymorph (via XRPD) in solid state stability [2] | solubility thermodynamic ([3]; 37 °C, thermodynamic from solid, FeSSIF, via HPLC) | Polymorph (via XRPD) after equilibrium solubility test ([3]; after 24 h in water (25° C.), SGF (37° C.), FaSSIF (37° C.), FeSSIF (37° C.)) | time to reach basic saturation ([3]; water (25° C.), SGF (37° C.), FaSSIF (37° C.), FeSSIF (37° C.))
1 | Cc1c2n(c3ncc(C(F)(F)F)cc13)CCN(C(=O)CCOC[C@H](C)Oc1cn[nH]c(=O)c1C(F)(F)F)C2 [Compound I, (S)-5-((1-(3-(5-methyl-3-(trifluoromethyl)-8,9-dihydropyrido[3′,2′:4,5]pyrrolo[1,2-a]pyrazin-7(6H)-yl)-3-oxopropoxy)propan-2-yl)oxy)-4-(trifluoromethyl)pyridazin-3(2H)-one] | 0.00158 µM |  |  |  | 
2 | Cc1c2n(c3ncc(C(F)(F)F)cc13)CCN(C(=O)CCOC[C@H](C)Oc1cn[nH]c(=O)c1C(F)(F)F)C2 [crystalline form 1 of Compound I, (S)-5-((1-(3-(5-methyl-3-(trifluoromethyl)-8,9-dihydropyrido[3′,2′:4,5]pyrrolo[1,2-a]pyrazin-7(6H)-yl)-3-oxopropoxy)propan-2-yl)oxy)-4-(trifluoromethyl)pyridazin-3(2H)-one] |  | remain unchanged; also recorded: The polymorph remained unchanged under above 4 conditions for 10 | ~100 µg/mL (≈ 183 µM) | remains unchanged | 4 h
